Results: patent publication US20140066365A1, “USE OF CALIXARENES ASSOCIATED WITH AN ANTIBIOTIC IN THE TREATMENT OF BACTERIAL INFECTIONS” (priority 2011, published 2014)

Columns and labels:
[1] = tested on: MRSA strain without associated resistance (SaR1); assay: MIC of the compounds used alone, microdilution in a liquid medium (CLSI); type: cell-based, Staphylococcus aureus; conditions: antibiotic alone (second value of cell); SaR1
Excerpt: (§1) The MICs of the antibiotics were previously defined for each strain, by the method of microdilution in a liquid medium (CLSI (Clinical and Laboratory Standards Institute), 2003).

[2] = tested on: MRSA strain having a resistance to the aminoglycosides and fluoroquinolones (SaR3); assay: as above; type: cell-based, Staphylococcus aureus; conditions: antibiotic alone (second value of cell); SaR3
Excerpt: as §1

[3] = tested on: MRSA strain having a resistance to the aminoglycosides, fluoroquinolones, macrolides-lincosamides-synergistins and ofloxacin (SaR4); assay: as above; type: cell-based, Staphylococcus aureus; conditions: antibiotic alone (second value of cell); SaR4
Excerpt: as §1

[4] = tested on: SaR1: Meticillin-Resistant Staphylococcus aureus without Associated Resistance; assay: Antibiogram, inhibition diameter (Table D1); type: cell-based
Protocol: (§2) The bacterial and antibiogramidentification is carried out by the VITEK 2 system (bioMérieux)

[5] = tested on: PaR2: Pseudomonas aeruginosa; type: cell-based
Protocol: (§3) The bacterial and antibiogramidentification is carried out by the VITEK 2 system (bioMérieux) and by the disk diffusion technique

[6] = tested on: EcR1: Penicillinase-Producing Escherichia coli without Associated Resistance; assay: Antibiogram, MIC by the VITEK 2 system; type: cell-based
Protocol: (§4) 5.1 EcR1: Penicillinase-Producing Escherichia coli without Associated Resistance The bacterial and antibiogramidentification is carried out by the VITEK 2 system (bioMérieux) and by the disk diffusion technique.

[7] = tested on: PaR5: Pseudomonas aeruginosa; assay: Antibiogram by the disk diffusion technique; type: cell-based
Protocol: as §3

[8] = tested on: SaR4: Meticillin-Resistant Staphylococcus aureus; assay: Antibiogram by the disk diffusion technique; type: cell-based
Protocol: as §3

[9] = tested on: SaR3: Meticillin-Resistant Staphylococcus aureus; assay: Antibiogram by the disk diffusion technique; type: cell-based
Protocol: as §3

[10] = tested on: Escherichia coli, Staphylococcus aureus and Pseudomonas aeruginosa strains; assay: Chessboard technique, summary statements over all strains and combinations tested; type: cell-based; conditions: strain not stated
In short: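 Checkerboard of 64 antibiotic/Cx1 concentration combinations per strain. FIC index classed as synergy (≤0.5), additive (>0.5–1), indifferent (>1–4) or antagonism (>4). Each strain and combination tested at least 3 times.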

[11] = tested on: EcR3: ESBL-Producing Escherichia coli; assay: Antibiogram by the disk diffusion technique; type: cell-based
Protocol: The bacterial and antibiogramidentification is carried out by the VITEK 2 system (bioMerieux) and by the disk diffusion technique

[12] = tested on: EcR1: Penicillinase-Producing Escherichia coli without Associated Resistance; assay: Antibiogram by the disk diffusion technique; type: cell-based; conditions: Table A1
Protocol: as §4

[13] = tested on: EcR2: Cephalosporinase-Hyperproducing Strain of Escherichia coli; assay: Antibiogram by the disk diffusion technique; type: cell-based
Protocol: The bacterial and antibiogramidentification is carried out by the VITEK 1 system (bioMérieux) and by the disk diffusion technique

[14] = tested on: penicillinase-producing strain of Escherichia coli without associated resistance (EcR1); assay: MIC of the compounds used alone, microdilution in a liquid medium (CLSI); type: cell-based; conditions: antibiotic alone (second value of cell)
Excerpt: as §1

[15] = tested on: cephalosporinase-hyperproducing strain of Escherichia coli (EcR2); assay: as above; type: cell-based; conditions: antibiotic alone (second value of cell)
Excerpt: as §1

[16] = tested on: Escherichia coli strain ATCC 25922 (wild type); assay: as above; type: cell-based; conditions: antibiotic alone (second value of cell); E. coli ATCC 25922
Excerpt: as §1

[17] = tested on: Staphylococcus aureus strain ATCC 29213 (wild type); assay: as above; type: cell-based; conditions: antibiotic alone (second value of cell); S. aureus ATCC 29213
Excerpt: as §1

[18] = tested on: ESBL-producing strain of Escherichia coli, having an associated resistance to the aminoglycosides (EcR3); assay: as above; type: cell-based; conditions: antibiotic alone (second value of cell)
Excerpt: as §1

[19] = tested on: PaR3: Pseudomonas aeruginosa; assay: Antibiogram, MIC by the VITEK 2 system; type: cell-based
Protocol: as §2

[20] = tested on: SaR1: Meticillin-Resistant Staphylococcus aureus without Associated Resistance; assay: Antibiogram, MIC by the VITEK 2 system; type: cell-based; conditions: SaR1
Protocol: as §2

Gentamicin
MIC [1]: 0.25 µg/mL
MIC [2]: 0.125 µg/mL
MIC [3]: 0.25 µg/mL
Diameter [4]: 23 mm
Results ([4]; from diameter, against Dmin Dmax): Susceptible
CA-SFM Interpretation ([5]; Cd CA-SFM 2011): Susceptible
CLSI Interpretation ([5]; Cd CLSI 2011): Susceptible
EUCAST Interpretation ([5]; Cd EUCAST 2011): Susceptible
Diameter ([5]; Table G1): 21 mm
Results ([5]; Table G1, against Dmin-Dmax): Susceptible
diameter in mm ([5]; Table G2): 21 mm
CA-SFM Interpretation ([6]; EcR1, MIC against Cc CA-SFM 2011): Susceptible
CLSI Interpretation ([6]; EcR1, MIC against Cc CLSI 2011): Susceptible
EUCAST Interpretation ([6]; EcR1, MIC against Cc EUCAST 2011): Susceptible
MIC mg/L (diameter in mm) ([6]; EcR1, Table A2): ≦1 mg/L
MIC mg/L ([6]; EcR1, VITEK 2, Table A1): ≦1 mg/L
Results ([6]; EcR1, interpretation of the MIC, Table A1): Susceptible
Diameter ([7]; PaR5, Table I1): 25 mm
Results ([7]; PaR5, Table I1, against Dmin-Dmax): Susceptible
diameter in mm ([7]; disk diffusion inhibition diameter, strain PaR5): 25 mm
CA-SFM Interpretation ([7]; disk diffusion, PaR5, versus critical diameter CA-SFM 2011): Susceptible
CLSI Interpretation ([7]; disk diffusion, PaR5, versus critical diameter CLSI 2011): Susceptible
EUCAST Interpretation ([7]; disk diffusion, PaR5, versus critical diameter EUCAST 2011, for ** antibiotics the disk load differs and the EUCAST interpretation is not applicable): Susceptible
Diameter ([8]; Table F1): 21
Results ([8]; Table F1, rows with a diameter): Susceptible
Diameter ([8]; Table F2, diameters): 21 mm
CA-SFM Interpretation ([8]; from diameter, CA-SFM 2011): Susceptible
CLSI Interpretation ([8]; from diameter, CLSI 2011): Susceptible
EUCAST Interpretation ([8]; from diameter, EUCAST 2011): Susceptible
CA-SFM Interpretation ([9]; Cd CA-SFM 2011): Susceptible
CLSI Interpretation ([9]; Cd CLSI 2011): Susceptible
EUCAST Interpretation ([9]; Cd EUCAST 2011): Susceptible
Diameter ([9]; Table E1): 20 mm
Results ([9]; Table E1, against Dmin Dmax): Susceptible
diameter in mm ([9]; Table E2): 20 mm
interaction between the antibiotic and Cx1 [10]: synergism
CA-SFM Interpretation ([11]; Cd CA-SFM 2011): Resistant
CLSI Interpretation ([11]; Cd CLSI 2011): Intermediate
EUCAST Interpretation ([11]; Cd EUCAST 2011): Resistant
Diameter ([11]; Table C1): 12 mm
Results ([11]; Table C1, against Dmin Dmax): Resistant
diameter in mm ([11]; Table C2): 12 mm
Diameter ([12]; EcR1, disk diffusion): 20 mm
Results ([12]; EcR1, interpretation of the diameter against Dmin Dmax): Susceptible
Diameter ([13]; EcR2, disk diffusion, Table B1): 12
Results ([13]; EcR2, rows that print a diameter, Table B1): Resistant
Diameter ([13]; EcR2, Table B2, diameters): 12 mm
CA-SFM Interpretation ([13]; EcR2, from diameter, CA-SFM 2011): Resistant
CLSI Interpretation ([13]; EcR2, from diameter, CLSI 2011): Resistant
EUCAST Interpretation ([13]; EcR2, from diameter, EUCAST 2011): Resistant
Initial MICs [14]: 0.125 mg/L
Initial MICs (mg/L) [15]: 2/2 mg/L
Initial MICs [16]: 0.125 mg/L
Initial MICs [17]: 0.25 mg/L
Initial MICs (mg/L) [18]: 2/2 mg/L
CA-SFM Interpretation ([19]; Cc CA-SFM 2011): Resistant
CLSI Interpretation ([19]; Cc CLSI 2011): Resistant
EUCAST Interpretation ([19]; Cc EUCAST 2011): Resistant
MIC ([19]; Table H1): ≧16
Results ([19]; Table H1): Resistant
MIC mg/L ([19]; Table H2): ≧16 mg/L
CA-SFM Interpretation ([20]; Cc CA-SFM 2011): Susceptible
CLSI Interpretation ([20]; Cc CLSI 2011): Susceptible
EUCAST Interpretation ([20]; Cc EUCAST 2011): Susceptible
MIC mg/L ([20]; Table D1): ≦0.5 mg/L
Results ([20]; Table D1, from MIC): Susceptible
MIC mg/L ([20]; Table D2): ≦0.5 mg/L
